Target: Telomerase reverse transcriptase (Homo sapiens, UniProt O14746)
Test: Inhibition of telomerase (unknown origin)

Chain of Telomerase reverse transcriptase (O14746 whole entry): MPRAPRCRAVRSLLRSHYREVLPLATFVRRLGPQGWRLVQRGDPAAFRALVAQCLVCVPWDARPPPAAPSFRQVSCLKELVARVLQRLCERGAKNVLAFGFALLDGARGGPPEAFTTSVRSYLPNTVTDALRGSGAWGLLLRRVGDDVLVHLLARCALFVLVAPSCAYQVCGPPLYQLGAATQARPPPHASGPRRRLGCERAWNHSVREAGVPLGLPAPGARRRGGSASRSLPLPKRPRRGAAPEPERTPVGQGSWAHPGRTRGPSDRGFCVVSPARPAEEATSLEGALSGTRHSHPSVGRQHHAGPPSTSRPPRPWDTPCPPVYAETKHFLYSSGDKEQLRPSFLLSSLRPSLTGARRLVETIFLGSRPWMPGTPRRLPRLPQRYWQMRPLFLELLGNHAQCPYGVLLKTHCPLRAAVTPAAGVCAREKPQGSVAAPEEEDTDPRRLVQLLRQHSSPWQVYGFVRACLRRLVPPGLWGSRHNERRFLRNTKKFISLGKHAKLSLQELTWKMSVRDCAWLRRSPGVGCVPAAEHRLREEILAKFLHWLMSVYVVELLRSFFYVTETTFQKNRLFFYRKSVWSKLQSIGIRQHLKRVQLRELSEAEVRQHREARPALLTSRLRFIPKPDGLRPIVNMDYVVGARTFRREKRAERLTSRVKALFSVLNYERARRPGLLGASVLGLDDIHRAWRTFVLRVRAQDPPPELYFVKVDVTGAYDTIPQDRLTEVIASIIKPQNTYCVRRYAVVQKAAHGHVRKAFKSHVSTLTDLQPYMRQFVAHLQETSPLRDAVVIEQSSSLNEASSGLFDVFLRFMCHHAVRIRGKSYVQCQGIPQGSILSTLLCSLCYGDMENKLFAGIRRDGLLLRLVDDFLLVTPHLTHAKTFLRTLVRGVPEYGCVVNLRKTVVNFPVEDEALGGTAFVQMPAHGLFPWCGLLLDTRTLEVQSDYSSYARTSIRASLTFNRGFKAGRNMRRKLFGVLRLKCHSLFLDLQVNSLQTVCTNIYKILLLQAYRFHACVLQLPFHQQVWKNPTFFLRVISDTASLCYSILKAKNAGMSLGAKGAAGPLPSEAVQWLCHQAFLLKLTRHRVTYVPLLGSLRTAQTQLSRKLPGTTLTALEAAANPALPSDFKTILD

SMILES | IC50
CSc1nc(Nc2ccc3nc(C)ccc3c2)nc(Nc2ccc3nc(C)cc(N)c3c2)n1 | 1 µM
CCN(CC)c1nc(Nc2ccncc2)nc(Nc2ccc3nc(C)cc(C)c3c2)n1 | 3.4 µM
C[n+]1cccc2cc(Nc3nc(N)nc(Nc4ccc5c(ccc[n+]5C)c4)n3)ccc21 | 0.13 µM
Cc1cc(N)c2cc(Nc3ccnc(Nc4ccc5nc(C)cc(N)c5c4)n3)ccc2n1 | 0.49 µM
Cc1cc(N)c2cc(Nc3nc(Nc4ccc5c(c4)c(N)cc(C)[n+]5C)nc(N(C)C)n3)ccc2[n+]1C | 0.22 µM
COc1cc(C)nc2ccc(Nc3nc(Nc4ccc5nc(C)cc(OC)c5c4)nc(SC)n3)cc12 | 3.9 µM
CCN(CC)c1nc(Nc2ccc3ncccc3c2)nc(Nc2ccc3nc(C)cc(N)c3c2)n1 | 2.5 µM
CSc1nc(Nc2ccc3nc(C)cc(C)c3c2)nc(Nc2ccc3nc(C)cc(N)c3c2)n1 | 3.4 µM
CCc1cc(Nc2nc(Nc3ccc4nc(C)cc(N)c4c3)nc(SC)n2)ccn1 | 2.2 µM
Cc1cc(N)c2cc(Nc3nc(N)nc(Nc4ccc5c(c4)c(N)cc(C)[n+]5C)n3)ccc2[n+]1C | 0.25 µM
CSc1nc(Nc2ccc3c(c2)c(=N)cc(C)n3C)nc(Nc2ccc3c(c2)c(=N)cc(C)n3C)n1 | 0.95 µM
CSc1nc(Nc2ccc3nc(C)cc(N(C)C)c3c2)nc(Nc2ccc3nc(C)cc(N(C)C)c3c2)n1 | 0.041 µM
COc1ccc2nccc(Nc3nc(Nc4ccc5nc(C)cc(C)c5c4)nc(SC)n3)c2c1 | 3.3 µM
Cc1cc(N)c2cc(Nc3nc(N)nc(Nc4ccc5nc(C)cc(N)c5c4)n3)ccc2n1 | 0.051 µM
CSc1nc(Nc2ccc3nc[nH]c3c2)nc(Nc2ccc3nc(C)cc(C)c3c2)n1 | 3.3 µM
Cc1cc(N)c2cc(NC(=N)NC(=N)Nc3ccc4nc(C)cc(N)c4c3)ccc2n1 | 2 µM

SMILES | IC50
CSc1nc(Nc2ccc(C#N)cc2)nc(Nc2ccc3nc(C)cc(N)c3c2)n1 | 3.4 µM
CSc1nc(Nc2ccc3nc(C)cc(C)c3c2)nc(Nc2ccnc3ccccc23)n1 | 3.4 µM
Cc1cc(N(C)C)c2cc(Nc3nc(Cl)nc(Nc4ccc5nc(C)cc(N(C)C)c5c4)n3)ccc2n1 | 3 µM
CSc1nc(Nc2cccc(C(=N)N)c2)nc(Nc2ccc3nc(C)cc(N)c3c2)n1 | 3.3 µM
CCn1c2ccccc2c2cc(Nc3nc(Nc4ccc5nc(C)cc(N)c5c4)nc(SC)n3)ccc21 | 2.8 µM
CSc1nc(Nc2ccc3nc(C)cc(N)c3c2)nc(N(C)c2ccc3ncccc3c2)n1 | 3.5 µM
C[n+]1c2ccccc2c(N)c2cc(Nc3nc(N)nc(Nc4ccc5c(c4)c(N)c4ccccc4[n+]5C)n3)ccc21 | 0.89 µM
CNc1nc(Nc2ccc3nc(C)cc(N)c3c2)nc(Nc2ccc3nc(C)cc(N)c3c2)n1 | 0.51 µM
CSc1nc(Nc2ccc3nc(C)cc(N)c3c2)nc(Nc2ccc3nc(C)cc(N)c3c2)n1 | 0.049 µM
COc1cc(C)nc2ccc(Nc3nc(Nc4ccc5nc(C)cc(N)c5c4)nc(SC)n3)cc12 | 2.3 µM
N=C(N)c1ccc(Nc2nc(N)nc(Nc3ccc(C(=N)N)cc3)n2)cc1 | 0.74 µM
CSc1nc(Nc2ccc3nc(C)cc(N)c3c2)nc(Nc2ccc3nc(C)cc(N(C)C)c3c2)n1 | 0.34 µM
CNc1nc(Nc2ccc3nc(C)cc(NC)c3c2)nc(Nc2ccc3nc(C)cc(NC)c3c2)n1 | 0.3 µM
CC[n+]1c(C)cc(N)c2cc(Nc3nc(N)nc(Nc4ccc5c(c4)c(N)cc(C)[n+]5CC)n3)ccc21 | 0.056 µM
CSc1nc(Nc2ccc3ncccc3c2)nc(Nc2ccc3nc(C)cc(N)c3c2)n1 | 2.6 µM

Reference: ChEMBL document CHEMBL3045096, “Pharmacophore modeling and 3D-QSAR (CoMSIA) studies for structural requirements of some triazine derivatives as G-quadruplex binders for telomerase inhibition” (Med Chem Res, 2013)
